In patent publication US10668048B2, “Compounds for inhibiting bacterial growth via phosphatidylglycerol binding” (Wichita State University, priority 2016, dated 2020):
In brackets after ≈: the same amount, converted by molar mass. One block for each compound: values may come before it.

Key:
[1] = Liptin-PG binding in solution (ITC and/or 1H NMR titration); details: for binding constant for PG (Ka): in DMF solution, prior research
Experimental: The lipid binding ability of liptins 1-3 (FIG. 2A) have been investigated in solution using isothermal titration calorimetry (ITC) and/or ^1H NMR. Stoichiometry of binding was accomplished with Job plots using ^1H NMR. […] The use of organic solvents allowed the determination of binding motif using ^1H NMR.
Liptins 1b, 1e, 2c, 2d, 3a, 3c in DMF/5% CHCl3; 3e in 50% DMSO, 45% CHCl3, 5% CH3OH.
Liptins 1h and 1i 40% DMSO, 60% CHCl3, 3f in 20% DMSO, 80% CHCl3.

MRSA [2] = experiment: MIC in cation-adjusted Muller Hinton culture; assay type: cell-based, Methicillin-resistant S. aureus; details: no growth after 24 hours
Experimental: (§1) MICs were determined in cation-adjusted Muller Hinton culture. Standard CLSI protocol for serial dilutions of liptin concentrations were used to determine the MIC, starting at 0.01 OD. Two different experimental cultures were used and each data point measured in triplicate.

Acinetobacter baumannii [3] = experiment: MIC in cation-adjusted Muller Hinton culture; assay type: cell-based; details: no growth after 24 hours
Experimental: as §1

Escherichia coli [4] = experiment: MIC in cation-adjusted Muller Hinton culture; assay type: cell-based; details: no growth after 24 hours
Experimental: as §1

Klebsiella pneumoniae [5] = experiment: MIC in cation-adjusted Muller Hinton culture; assay type: cell-based; details: no growth after 24 hours
Experimental: as §1

Mycobacterium smegmatis [6] = experiment: MIC in cation-adjusted Muller Hinton culture; assay type: cell-based; details: no growth after 24 hours
Experimental: as §1

Pseudomonas aeruginosa = experiment: MIC in cation-adjusted Muller Hinton culture; assay type: cell-based; details: no growth after 24 hours
Experimental: as §1

Staphylococcus aureus [7] = experiment: MIC in cation-adjusted Muller Hinton culture; assay type: cell-based; details: no growth after 24 hours
Experimental: as §1

MRSA [8] = experiment: MBC in cation-adjusted Muller Hinton culture; assay type: cell-based, Methicillin-resistant S. aureus
Experimental: as §1, with “Minimum bactericidal concentration (MBC)” for “MICs”, “MBC,” for “MIC,”

Acinetobacter baumannii [9] = experiment: MBC in cation-adjusted Muller Hinton culture; assay type: cell-based
Experimental: as §1, with “Minimum bactericidal concentration (MBC)” for “MICs”, “MBC,” for “MIC,”

Escherichia coli [10] = experiment: MBC in cation-adjusted Muller Hinton culture; assay type: cell-based
Experimental: as §1, with “Minimum bactericidal concentration (MBC)” for “MICs”, “MBC,” for “MIC,”

Klebsiella pneumoniae [11] = experiment: MBC in cation-adjusted Muller Hinton culture; assay type: cell-based
Experimental: as §1, with “Minimum bactericidal concentration (MBC)” for “MICs”, “MBC,” for “MIC,”

Mycobacterium smegmatis [12] = experiment: MBC in cation-adjusted Muller Hinton culture; assay type: cell-based
Experimental: as §1, with “Minimum bactericidal concentration (MBC)” for “MICs”, “MBC,” for “MIC,”

Staphylococcus aureus [13] = experiment: MBC in cation-adjusted Muller Hinton culture; assay type: cell-based
Experimental: as §1, with “Minimum bactericidal concentration (MBC)” for “MICs”, “MBC,” for “MIC,”

[14] = NMR titrations, DMF/5% CHCl3, 1:1 binding stoichiometry
[15] = ITC, DMF/5% CHCl3, 1:1 binding stoichiometry

SMILES: O=C(NCc1cc(CCCO)cc2c1OCCCCOc1c(cc(CCCO)cc1CNC(=O)Nc1ccccc1)CCC2)Nc1ccccc1 [Liptin 2a]
binding constant for PG (Ka) [1]: no significant binding

SMILES: O=C(NCc1cc(CCCO)cc2c1OCCCOc1c(cc(CCCO)cc1CNC(=O)Nc1ccccc1)CCC2)Nc1ccccc1 [Liptin 2b]
binding constant for PG (Ka) [1]: no significant binding

SMILES: O=C(NCCOCc1ccccc1)Nc1ccccc1-c1c2nc(c(-c3ccccc3NC(=O)NCCOCc3ccccc3)c3ccc([nH]3)c(-c3ccccc3NC(=O)NCCOCc3ccccc3)c3nc(c(-c4ccccc4NC(=O)NCCOCc4ccccc4)c4ccc1[nH]4)C=C3)C=C2 [Liptin 3a]
Ka [1, 15]: 2100 M⁻¹

SMILES: CCOCCOCCOCCNC(=O)Nc1ccccc1-c1c2nc(c(-c3ccccc3NC(=O)NCCOCCOCCOCC)c3ccc([nH]3)c(-c3ccccc3NC(=O)NCCOCCOCCOCC)c3nc(c(-c4ccccc4NC(=O)NCCOCCOCCOCC)c4ccc1[nH]4)C=C3)C=C2 [Liptin 3c]
Ka [1, 15]: 3700 M⁻¹

SMILES: O=C(CNCc1ccccc1)Nc1ccccc1-c1c2nc(c(-c3ccccc3NC(=O)CNCc3ccccc3)c3ccc([nH]3)c(-c3ccccc3NC(=O)CNCc3ccccc3)c3nc(c(-c4ccccc4NC(=O)CNCc4ccccc4)c4ccc1[nH]4)C=C3)C=C2 [Liptin 3f]
Ka ([1]; NMR titrations, 20% DMSO, 80% CHCl3): 2800 M⁻¹

Continued, in another order:

Ka [1, 14]: 200 M⁻¹
SMILES: Cc1ccc2c(c1)CNCCCNCc1cc(C)ccc1OCCCCCO2 [Liptin 1b]

Ka [1, 14]: 250 M⁻¹
SMILES: Cc1ccc2c(c1)CNCCCCNCc1cc(C)ccc1OCCCCO2 [Liptin 1e]

Ka ([1]; ITC or NMR titrations, 40% DMSO, 60% CHCl3): 1500 M⁻¹ | MIC (MRSA [2]): 3.5 µM (≈ 2.28 µg/mL) | MIC (Acinetobacter baumannii [3]): 3.5 µM (≈ 2.28 µg/mL) | MIC (Escherichia coli [4]): 3 µM (≈ 1.95 µg/mL) | MIC (Klebsiella pneumoniae [5]): 4 µM (≈ 2.6 µg/mL) | MIC (Mycobacterium smegmatis [6]): 3 µM (≈ 1.95 µg/mL) | MIC (Pseudomonas aeruginosa): 12 µM (≈ 7.81 µg/mL) | MIC (Staphylococcus aureus [7]): 3 µM (≈ 1.95 µg/mL)
SMILES: CCCCCCNC(=O)CCc1ccc2c(c1)CNCCCNCc1cc(CCC(=O)NCCCCCC)ccc1OCCCCO2 [Liptin 1i]
MBC (MRSA [8]): 11.5 µM (≈ 7.49 µg/mL) | MBC (Acinetobacter baumannii [9]): 11.5 µM (≈ 7.49 µg/mL) | MBC (Escherichia coli [10]): 14 µM (≈ 9.11 µg/mL) | MBC (Klebsiella pneumoniae [11]): 12 µM (≈ 7.81 µg/mL) | MBC (Mycobacterium smegmatis [12]): 10.5 µM (≈ 6.83 µg/mL) | MBC (Staphylococcus aureus [13]): 10.5 µM (≈ 6.83 µg/mL)

MIC (MRSA [2]): 4.5 µM (≈ 2.99 µg/mL) | MIC (Acinetobacter baumannii [3]): 4 µM (≈ 2.66 µg/mL) | MIC (Escherichia coli [4]): 3.5 µM (≈ 2.33 µg/mL) | MIC (Klebsiella pneumoniae [5]): 3.5 µM (≈ 2.33 µg/mL) | MIC (Mycobacterium smegmatis [6]): 3.5 µM (≈ 2.33 µg/mL) | MIC (Pseudomonas aeruginosa): 14 µM (≈ 9.31 µg/mL) | MIC (Staphylococcus aureus [7]): 4 µM (≈ 2.66 µg/mL)
SMILES: CCCCCCNC(=O)CCc1ccc2c(c1)CNCCCCNCc1cc(CCC(=O)NCCCCCC)ccc1OCCCCO2 [Liptin 1j]
MBC (MRSA [8]): 15 µM (≈ 9.97 µg/mL) | MBC (Acinetobacter baumannii [9]): 12.5 µM (≈ 8.31 µg/mL) | MBC (Escherichia coli [10]): 15 µM (≈ 9.97 µg/mL) | MBC (Klebsiella pneumoniae [11]): 13 µM (≈ 8.64 µg/mL) | MBC (Mycobacterium smegmatis [12]): 12 µM (≈ 7.98 µg/mL) | MBC (Staphylococcus aureus [13]): 15.5 µM (≈ 10.3 µg/mL)
